Measured values taken from patent publication US20120130146A1, “CONTINUOUS ADMINISTRATION OF CILENGITIDE IN CANCER TREATMENTS” (Merck Patent GmbH, priority 2009, published 2012).
Where “and” joins values, the source holds several entries; their conditions need not be identical. Equal values may be shown once. Read-outs that look alike come from different tables or passages of the source.

Test: Continuous infusion study pharmacokinetics (plasma)
Assay type: in vivo, human
Details: for dose proportionality of steady-state concentration (Css): continuous infusion 1-12 mg/h; for level at 2 h / level at 168 h / level at 170 h / level at 336 h / level at 338 h / level at 504 h / level at 506 h: iv
Experimental: Patients with solid tumors received a continuous infusion of 1 mg/h, 2 mg/h, 4 mg/h, 8 mg/h or 12 mg/h. with a weekly change of infusion bag.
Blood samples were taken on Day 1 (first dose) at pre-dose and 2 h after start of infusion and then weekly just before change of infusion bag and 2 hours thereafter for the first 4 weeks.
The following pharmacokinetic parameters were derived at Merck KGaA. Darmstadt, Germany, by mathematical methods using Kinetica Version 4.1.1.
CL the total body clearance of EMD 121974 from plasma Css plasma concentration at steady state ke elimination rate constant Rate infusion rate t1/2, half life V Volume of distribution
Css, the plasma concentration at steady state, has been estimated by the arithmetic mean of all concentration values from time point 168 h to 506 h per patient.
From Css and t1/2 the PK parameters CL, ke and V were calculated as follows: […]

[1] = Rate 12 mg/h, Mean, t1/2 = 4 hours
[2] = human, plasma, 1 mg/h, Rate 1 mg/h, Mean, read-out: EMD 121974 Concentrations, Mean
[3] = human, plasma, 2 mg/h, Rate 2 mg/h, Mean, read-out: EMD 121974 Concentrations, Mean
[4] = human, plasma, 4 mg/h, Rate 4 mg/h, Mean, read-out: EMD 121974 Concentrations, Mean
[5] = human, plasma, 8 mg/h, Rate 8 mg/h, Mean, read-out: EMD 121974 Concentrations, Mean
[6] = human, plasma, 12 mg/h, Rate 12 mg/h, Mean, read-out: EMD 121974 Concentrations, Mean

## CC(C)[C@H]1C(=O)N[C@@H](CCCN=C(N)N)C(=O)NCC(=O)N[C@@H](CC(=O)O)C(=O)N[C@H](Cc2ccccc2)C(=O)N1C [Cilengitide, cyclo-(Arg-Gly-Asp-DPhe-NMeVal)]
Rate 12 mg/h, 336 h, individual subjects, listed as EMD 121974
  EMD 121974 Concentrations: 4280.00 ng/mL and 1250.00 ng/mL and 1790.00 ng/mL
Rate 12 mg/h, 338 h, individual subjects, listed as EMD 121974
  EMD 121974 Concentrations: 1780.00 ng/mL and 1610.00 ng/mL and 1620.00 ng/mL
Rate 12 mg/h, 504 h, individual subjects, listed as EMD 121974
  EMD 121974 Concentrations: 2220.00 ng/mL and 989.00 ng/mL and 2050.00 ng/mL
Rate 12 mg/h, 506 h, individual subjects, listed as EMD 121974
  EMD 121974 Concentrations: 1550.00 ng/mL and 1230.00 ng/mL and 1880.00 ng/mL
Rate 12 mg/h, CL=Rate/Css, individual subjects, listed as EMD 121974
  CL: 7.66 L/h and 6.75 L/h
[1]
  V, Mean: 39.5 L
  ke, Mean: 0.173 h⁻¹
Rate 12 mg/h, V=CL/ke, t1/2 = 4 hours, individual subjects, listed as EMD 121974
  V: 35.4 L and 44.2 L and 39.0 L
Rate 12 mg/h, for t1/2 = 4 hours, individual subjects
  ke: 0.173 h⁻¹
Rate 12 mg/h, mean of 168 h to 506 h values per patient, individual subjects, listed as EMD 121974
  Css: 1956.2 ng/mL and 1566.5 ng/mL and 1776.7 ng/mL
Assuming a half-life of 4 hours
  time to reach steady state conditions: ≤ 24 h
Listed as EMD
  dose proportionality of steady-state concentration (Css): increased proportionally to dose
Listed as EMD 121974
  dose proportionality of steady-state concentration (Css): increase proportional to dose
human, plasma, intravenous, 1 mg/h, Rate 1 mg/h, Mean, read-out: CL, Mean (converted)
  clearance: 139 mL/min
human, plasma, intravenous, 2 mg/h, Rate 2 mg/h, CL=Rate/Css, individual subjects, read-out: CL (converted)
  clearance: 115 mL/min
human, plasma, intravenous, 2 mg/h, Rate 2 mg/h, Mean, read-out: CL, Mean (converted)
  clearance: 95.3 mL/min
human, plasma, intravenous, 4 mg/h, Rate 4 mg/h, CL=Rate/Css, individual subjects, read-out: CL (converted)
  clearance: 107 mL/min
human, plasma, intravenous, 4 mg/h, Rate 4 mg/h, Mean, read-out: CL, Mean (converted)
  clearance: 109 mL/min
human, plasma, intravenous, 8 mg/h, Rate 8 mg/h, Mean, read-out: CL, Mean (converted)
  clearance: 112 mL/min
human, plasma, intravenous, 12 mg/h, Rate 12 mg/h, CL=Rate/Css, individual subjects, read-out: CL (converted)
  clearance: 102 mL/min
human, plasma, intravenous, 12 mg/h, Rate 12 mg/h, Mean, read-out: CL, Mean (converted)
  clearance: 114 mL/min
human, plasma, intravenous, range of dose-group means, 1-12 mg/h, read-out: mean clearance
  clearance: 95.3 to 139 mL/min
human, plasma, intravenous, range of dose-group means, 1-12 mg/h, t1/2 = 4 hours assumed, read-out: Mean volume of distribution
  Vd: 33 to 48 L
[2]
  level at 2 h: 39.1 ng/mL
  level at 168 h: 156 ng/mL
  level at 170 h: 66.6 ng/mL
human, plasma, 1 mg/h, Rate 1 mg/h, 336 h, Mean, read-out: EMD 121974 Concentrations, Mean
  level at 336 h: 209 ng/mL
human, plasma, 1 mg/h, Rate 1 mg/h, 338 h, Mean, read-out: EMD 121974 Concentrations, Mean
  level at 338 h: 191 ng/mL
human, plasma, 1 mg/h, Rate 1 mg/h, 504 h, Mean, read-out: EMD 121974 Concentrations, Mean
  level at 504 h: 62.1 ng/mL
human, plasma, 1 mg/h, Rate 1 mg/h, 504 h, individual subjects, read-out: EMD 121974 Concentrations
  level at 504 h: 62.1 ng/mL
human, plasma, 1 mg/h, Rate 1 mg/h, 506 h, Mean, read-out: EMD 121974 Concentrations, Mean
  level at 506 h: 109 ng/mL
human, plasma, 1 mg/h, Rate 1 mg/h, 506 h, individual subjects, read-out: EMD 121974 Concentrations
  level at 506 h: 94.4 ng/mL
[3]
  level at 2 h: 162 ng/mL
  level at 168 h: 344 ng/mL
  level at 170 h: 280 ng/mL
human, plasma, 2 mg/h, Rate 2 mg/h, 336 h, Mean, read-out: EMD 121974 Concentrations, Mean
  level at 336 h: 495 ng/mL
human, plasma, 2 mg/h, Rate 2 mg/h, 338 h, Mean, read-out: EMD 121974 Concentrations, Mean
  level at 338 h: 360 ng/mL
human, plasma, 2 mg/h, Rate 2 mg/h, 504 h, Mean, read-out: EMD 121974 Concentrations, Mean
  level at 504 h: 376 ng/mL
human, plasma, 2 mg/h, Rate 2 mg/h, 506 h, Mean, read-out: EMD 121974 Concentrations, Mean
  level at 506 h: 337 ng/mL
[4]
  level at 2 h: 328 ng/mL
  level at 168 h: 626 ng/mL
  level at 170 h: 516 ng/mL
human, plasma, 4 mg/h, Rate 4 mg/h, 336 h, Mean, read-out: EMD 121974 Concentrations, Mean
  level at 336 h: 726 ng/mL
human, plasma, 4 mg/h, Rate 4 mg/h, 338 h, Mean, read-out: EMD 121974 Concentrations, Mean
  level at 338 h: 559 ng/mL
human, plasma, 4 mg/h, Rate 4 mg/h, 504 h, Mean, read-out: EMD 121974 Concentrations, Mean
  level at 504 h: 665 ng/mL
human, plasma, 4 mg/h, Rate 4 mg/h, 506 h, Mean, read-out: EMD 121974 Concentrations, Mean
  level at 506 h: 681 ng/mL
[5]
  level at 2 h: 503 ng/mL
  level at 168 h: 1460 ng/mL
  level at 170 h: 1210 ng/mL
human, plasma, 8 mg/h, Rate 8 mg/h, 336 h, Mean, read-out: EMD 121974 Concentrations, Mean
  level at 336 h: 525 ng/mL
human, plasma, 8 mg/h, Rate 8 mg/h, 338 h, Mean, read-out: EMD 121974 Concentrations, Mean
  level at 338 h: 972 ng/mL
human, plasma, 8 mg/h, Rate 8 mg/h, 504 h, Mean, read-out: EMD 121974 Concentrations, Mean
  level at 504 h: 1630 ng/mL
human, plasma, 8 mg/h, Rate 8 mg/h, 506 h, Mean, read-out: EMD 121974 Concentrations, Mean
  level at 506 h: 1290 ng/mL
[6]
  level at 2 h: 499 ng/mL
  level at 168 h: 1770 ng/mL
  level at 170 h: 1410 ng/mL
human, plasma, 12 mg/h, Rate 12 mg/h, 336 h, Mean, read-out: EMD 121974 Concentrations, Mean
  level at 336 h: 2440 ng/mL
human, plasma, 12 mg/h, Rate 12 mg/h, 338 h, Mean, read-out: EMD 121974 Concentrations, Mean
  level at 338 h: 1670 ng/mL
human, plasma, 12 mg/h, Rate 12 mg/h, 504 h, Mean, read-out: EMD 121974 Concentrations, Mean
  level at 504 h: 1750 ng/mL
human, plasma, 12 mg/h, Rate 12 mg/h, 506 h, Mean, read-out: EMD 121974 Concentrations, Mean
  level at 506 h: 1550 ng/mL
